Results on one molecule are retold here after paper PMC10653909, “PlzD modifies Vibrio vulnificus foraging behavior and virulence in response to elevated c-di-GMP” (mBio, 2023).

The target of this assay is T1, PlzD.
T1 construct: His-tagged PlzD (aot11_00285, strain ATCC27562), expressed in E. coli BL21(DE3)
Description: micro-equilibrium dialysis with UV absorbance at […] nm, purified protein. The assay is classed as binding, Vibrio vulnificus. (In equilibrium dialysis free small molecules cross a membrane that holds back macromolecules.)

As to `Nc1nc2c(ncn2[C@@H]2O[C@@H]3COP(=O)(O)O[C@H]4[C@@H](O)[C@H](n5cnc6c(=O)[nH]c(N)nc65)O[C@@H]4COP(=O)(O)O[C@H]3[C@H]2O)c(=O)[nH]1` [c-di-GMP], the Kd was determined as 3.9 µM.

In general, Kd refers to the equilibrium constant for the complex coming apart. A high value points to a looser complex.
